Reference: patent US20030232765A1, “Aryl urea compounds in combination with other cytostatic or cytotoxic agents for treating human cancers” (BAYER CORPORATION, priority 2001, published 2003)
Counter-ions that a name gives are not always drawn. Like-named read-outs stand apart in the source and are kept apart here.

How the values were obtained:
[1] = Camptosar 40 mg/kg/dose i.p. q4d×3, Compound A 80 mg/kg/dose p.o. qd×9
Excerpt: (§1) Ncr nu/nu female mice (Taconic Farms, Germantown, N.Y.) were used for all in vivo studies invovling the DLD-1 and NCI-H460 tumor models. Female CB-17 SCID nice (Taconic Farms, Germantown, N.Y.) were used for studies involving the Mia-PaCa-2 tumor model. The mice were housed and maintained within the Comparative Medicine Department at Bayer Corporation, West Haven, Conn. in accordance with Bayer IACUC, State, and Federal guidelines for the humane treatment and care of laboratory animals. Mice received food and water ad libitum.
(§2) These schedules are termed ‘Concurrent Therapy’.
In the first study, Camptosar® was administered i.p at 40 mg/kg/dose.

[2] = system: DLD-1 human colon tumor xenografts; assay: Tumor xenograft experiment, established s.c. DLD-1 tumors, anti-tumor efficacy (Example 1); format: in vivo; conditions: Camptosar 40 mg/kg/dose i.p. q4d×3, Compound A 80 mg/kg/dose p.o. qd×9
Excerpt: (§3) Mice received food and water ad libitum.
as §2

[3] = Iressa 150 mg/kg/dose p.o. qd×9; Compound A 80 mg/kg/dose p.o. qd×9; alone or combined; 10 mice per group
Excerpt: as §2

[4] = Tolerability (body weight, mortality) in MiaPaCa-2 tumor-bearing mice (Example 2); format: in vivo; conditions: Gemzar 120 mg/kg/dose i.p. q4d×3; Compound A p.o. qd×9 (40 mg/kg/dose, 80 mg/kg dose level); alone or concurrent
Excerpt: as §3, §2

[5] = system: MX-1 mammary tumor xenografts; assay: Tumor xenograft experiment, established MX-1 tumors, anti-tumor efficacy (Example 4); conditions: DOX 4 mg/kg/dose i.v. q4d×3; Compound A 40 mg/kg/dose p.o. qd×9; alone or combined; endpoint time to four mass doublings
Excerpt: The DLD-1 human colon carcinoma and the MiaPaCa-2 human pancreatic carcinoma were obtained from the American Type Tissue Culture Collection Repository. The MX-1 human mammary tumor was obtained from the NCI tumor repository. Tumors were maintained as a serial in vivo passage of s.c. fragments (3×3 mm) implanted in the flank using a 12 gauge trocar. A new generation of the passage was initiated every three or four weeks.
Female mice were implanted s.c. with DLD-1, MX-1 or Mia-PaCa-2 tumor fragments from an in vivo passage. […] The general health of mice was monitored and mortality was recorded daily. Tumor dimensions and body weights were recorded twice a week starting with the first day of treatment. […]
Tumor weights were calculated using the equation (l×w^2)/2, where l and w refer to the larger and smaller dimensions collected at each measurement. […] Anti-tumor efficacy was measured as the incidence of complete regressions (CR) defined as tumors that are reduced to below the limit of measurement (3 mm) in both length and width, partial regressions (PR) defined as tumors that are reduced by more than 50% but less than 100% of their initial size, and percent tumor growth suppression (% TGS). […]

[6] = system: A549 human non-small cell lung tumor xenografts; assay: Tumor xenograft experiment, established A549 tumors, anti-tumor efficacy (Example 5); format: in vivo; conditions: Iressa 150 mg/kg/dose p.o. qd×9, Compound A 80 mg/kg/dose p.o. qd×9; for percent tumor growth suppression (% TGS): alone or combined, endpoint time to one mass doubling
Protocol: (§4) The NCI-H460 cells were maintained and passaged in vitro using DMEM (GIBCO cat. # 11995-065: 500 mls) supplemented with 10% heat inactivated fetal bovine serum (JRH Biosciences cat.# 12106-500M), 2 mM L-glutamine (GIBCO cat. # 25030-81), 10 mM HEPES buffer (GIBCO cat # 15630-080) and penicillin-streptomycin (GIBCO cat. # 15140-122: 5 mls/[…]). The A549 cells were maintained and passaged using RPMI 1640 media (GIBCO cat.# 11875-085: 1000 ml) supplemented with 10% heat-inactivated fetal bovine serum (JRH Biosciences cat.# 12106-500M). All cells were maintained at 37° C. and 5% CO2 in a Fisher Scientific 610 CO2 incubator.
as §2

[7] = system: MiaPaCa-2 human pancreatic tumor xenografts; assay: Tumor xenograft experiment, established s.c. MiaPaCa-2 tumors, anti-tumor efficacy (Example 2); format: in vivo; conditions: Gemzar 120 mg/kg/dose i.p. q4d×3
Excerpt: as §3, §2

in vivo = conditions: female, Ncr nu/nu, mouse, iv, 6.7 mg/kg/dose
Excerpt: as §1, §2

[8] = system: NCI-H460 human non-small cell lung tumor xenografts; assay: Tumor xenograft experiment, established s.c. NCI-H460 tumors, anti-tumor efficacy (Example 3); format: in vivo; conditions: Ncr nu/nu mice; Navelbine 6.7 mg/kg/dose i.v. q4d×3; Compound A 40 mg/kg/dose p.o. qd×9; alone or combined; endpoint time to three mass doublings
Excerpt: as §1, §4, §2

SMILES	lethality ([1]; alone or concurrent)	lethality [3]	lethality [4]	percent tumor growth suppression (% TGS) [5] [%]	incidence of partial regressions (PR) ([6]; 10 mice per group)	percent tumor growth suppression (% TGS) [6] [%]	other results
CCc1c2c(nc3ccc(OC(=O)N4CCC(N5CCCCC5)CC4)cc13)-c1cc3c(c(=O)n1C2)COC(=O)[C@]3(O)CC [Camptosar, Irinotecan]	no lethality						weight loss ([1]; alone or concurrent): minimal weight loss; tolerability ([1]; single agents): well tolerated; incidence of complete regressions (CR) ([2]; 10 mice per group): no complete or partial tumor regressions; incidence of partial regressions (PR) ([2]; 10 mice per group): no complete or partial tumor regressions; percent tumor growth suppression (% TGS) ([2]; Ncr nu/nu mice, alone or concurrent, endpoint time to three mass doublings): 71%
CNC(=O)c1cc(Oc2ccc(NC(=O)Nc3ccc(Cl)c(C(F)(F)F)c3)cc2)ccn1 [Compound A, N-(4-chloro-3-(trifluoromethyl)phenyl)-N′-(4-(2-(N-methylcarbamoyl)-4-pyridyloxy)phenyl)urea]	no lethality	no weight loss or lethality	no lethality	46	2	218	incidence of complete regressions (CR) ([6]; 10 mice per group): 1
COc1cccc2c1C(=O)c1c(O)c3c(c(O)c1C2=O)C[C@@](O)(C(=O)CO)C[C@@H]3O[C@H]1C[C@H](N)[C@H](O)[C@H](C)O1 [DOX, Doxorubicin HCl]				43			
Nc1ccn([C@@H]2O[C@H](CO)[C@@H](O)C2(F)F)c(=O)n1 [Gemzar, Gemcitabine HCI]			no lethality				percent tumor growth suppression (% TGS) ([7]; CB-17 SCID mice, Compound A 40 mg/kg/dose p.o. qd×9, alone or concurrent, endpoint time to two mass doublings): 154%; incidence of complete regressions (CR) ([7]; 10 mice per group): no complete or partial tumor regressions; incidence of partial regressions (PR) ([7]; Compound A 40 mg/kg/dose p.o. qd×9, 10 mice per group): no complete or partial tumor regressions
COc1cc2ncnc(Nc3ccc(F)c(Cl)c3)c2cc1OCCCN1CCOCC1 [Iressa, 4-(3-chloro-4-fluoroanilino)7-methoxy-6-(3-morpholinopropoxy)quinazoline]		no lethality			1	101	
CCC1=C[C@@H]2CN(C1)Cc1c([nH]c3ccccc13)[C@@](C(=O)OC)(c1cc3c(cc1OC)N(C)[C@H]1[C@@](O)(C(=O)OC)[C@H](OC(C)=O)[C@]4(CC)C=CCN5CC[C@]31[C@@H]54)C2 [Navelbine, 3′,4′-didehydro-4′deoxy-C-norvincaleukoblastine [R—(R,R)-2,3-dihydroxybutanedioate (1:2)(salt)]]							MTD at 9 days (in vivo): ~6.7 mg/kg; percent tumor growth suppression (% TGS) [8]: 32%
